Data published in patent US10925840B2, “Use of fenoterol and fenoterol analogues in the treatment of glioblastomas and astrocytomas” (priority 2010, dated 2021).
Values joined by “and” are separate entries in the source; they are usually repeats but may differ in a detail not shown here. Equal values may be shown once. Where a name gives a salt, the structure may show the parent alone. Read-outs that look alike come from different tables or passages of the source.

Tests used:
human β2-AR = human β2-AR (Homo sapiens (Human), UniProt P07550)
rat cardiomyocyte = assay: Rat cardiomyocyte contractility model; type: cell-based
β1-AR = β1-AR (Rattus norvegicus (Rat), UniProt P18090); conditions: read-out: Ki β1; Ki ± SEM, n=3
U118 cells = conditions: [3H]-thymidine incorporation
1321N1 cells [1] = assay: Cell cycle distribution by flow cytometry in 1321N1 cells; conditions: 20 hours
[2] = IV 5 mg/kg
β2-AR = conditions: previously reported; cited from earlier work
1321N1 cells [3] = assay: Inhibition of mitogenesis, [3H]-thymidine incorporation in 1321N1 cells; type: cell-based, human
[4] = Brain and plasma distribution after single IV administration in rats; type: in vivo, male Sprague-Dawley rats
Protocol: An overview of the research study design for evaluating the brain-to-plasma distribution of [^3H]
(specific activity 57 Ci/mmol); vehicle was sterile saline, 0.9% sodium chloride, USP. Dose formulations were prepared on the day of the study. The amount of radioactivity in the dose formulation was determined by liquid scintillation. The study lasted for an hour and radioactivity levels in plasma and brain tissue were evaluated at the conclusion of the study. Approximately 5 mls of whole blood was collected. Blood samples were collected via cardiac puncture, transferred into a tube containing K3EDTA as the anticoagulant and kept on wet ice until processed to plasma. To generate plasma, samples were centrifuged within 15 minutes of collection at 2,500 RPM for 15 minutes at room temperature. Plasma was divided equally into three labeled cryovials and stored on ample dry ice until transferred to a freezer set at ≤−20° C. for storage until analysis. Duplicate aliquots were weighed and then combined with scintillation cocktail. The [^3H] radioactivity was determined on a liquid scintillation counter. Brain samples were snap frozen in liquid nitrogen and stored at ≤−70° C. until analysis. Whole brain tissue was homogenized and the weight of the homogenate was determined. Duplicate aliquots from the homogenate were weighed, solubilized and then combined with scintillation cocktail. The [^3H] radioactivity was determined on a liquid scintillation counter.

[5] = rat, IV 5 mg/kg, 5 min, listed as [^3H]—(R,R)-methoxyfenoterol
[6] = rat, IV 5 mg/kg, 60 min, listed as [^3H]—(R,R)-methoxyfenoterol

Chain of β1-AR (P18090 whole entry): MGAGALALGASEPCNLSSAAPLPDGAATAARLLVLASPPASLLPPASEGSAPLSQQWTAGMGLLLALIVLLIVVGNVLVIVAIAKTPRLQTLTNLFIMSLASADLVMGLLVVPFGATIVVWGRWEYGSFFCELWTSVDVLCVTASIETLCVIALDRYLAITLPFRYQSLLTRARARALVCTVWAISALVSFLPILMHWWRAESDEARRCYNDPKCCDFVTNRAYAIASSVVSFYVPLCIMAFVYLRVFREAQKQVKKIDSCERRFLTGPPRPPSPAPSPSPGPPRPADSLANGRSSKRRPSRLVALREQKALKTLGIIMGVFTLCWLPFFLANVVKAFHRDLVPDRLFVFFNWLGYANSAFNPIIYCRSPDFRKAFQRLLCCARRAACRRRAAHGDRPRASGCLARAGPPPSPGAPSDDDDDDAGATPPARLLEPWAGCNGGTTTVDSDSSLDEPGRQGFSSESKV

Q: Which “affinity for the β2-AR weaker than (R,R)-5” value (human β2-AR) does the source give for C[C@H](Cc1cccc2ccccc12)NC[C@@H](O)c1cc(O)cc(O)c1.O=C(O)/C=C/C(=O)O (racemic) [(S,R)-5, (S,R)-(+)-5-{1-hydroxy-2-[1-methyl-2-(1-naphthyl)ethylamino]ethyl}-1,3-benzenediol Fumarate] here?
A: 7 fold

Q: For C[C@@H](Cc1ccc(O)cc1)NC[C@@H](O)c1cc(O)cc(O)c1 (racemic) [(S,S)-1, (S,S)-(±)-Fenoterol], which EC50 (rat cardiomyocyte) is on record?
A: 55 µM

Q: What does the source list for O=C(O)/C=C/C(=O)O.Oc1cc(O)cc([C@@H](O)CNCCc2ccccc2)c1 [(R)-7, (R)-(−)-5-(1-Hydroxy-2-phenethylaminoethyl)-1,3-benzenediol fumarate]?
A: Ki (β1-AR): 42.5 ± 3.47 µM; Kiβ2 value higher than (R,S)-3 (human β2-AR; relative to (R,S)-3): 32%

Q: For C[C@H](Cc1ccc(O)cc1)NC[C@H](O)c1cc(O)cc(O)c1 [(R,R)-1, (R,R)-(−)-Fenoterol], which “IC50 higher than the value calculated in 1321N1 cells” value (U118 cells) is on record?
A: 50 fold

Q: And the “% Phase Distribution G2” value (1321N1 cells [1]; 0.1 nM)?
A: 1.8%

Q: What about the “% Phase Distribution G1” value (1321N1 cells [1]; 10.0 nM) of the same molecule?
A: 76.0%

Q: What about the “% Phase Distribution G2” value (1321N1 cells [1]; 10.0 nM) of the same molecule?
A: 2.1%

Q: What about the “% Phase Distribution G2” value (1321N1 cells [1]; 1000 nM) of the same molecule?
A: 0.7%

Q: With COc1ccc(C[C@@H](C)NC[C@H](O)c2cc(O)cc(O)c2)cc1.O=C(O)/C=C/C(=O)O [(R,R)-2, (R,R)-(−)-1-p-Methoxyphenyl-2-(β-3′,5′-dihydroxy-phenyl-β-oxy)ethylamino-propane Fumarate] as the molecule, how does the “plasma concentration, individual rat” value ([2]; 300 min, listed as (R,R)-methoxyfenoterol) read?
A: 0.06 ug/ml and 0.07 ug/ml (3×) and 0.09 ug/ml

Q: And the “systemic exposure (AUC) compared to (R,R)-fenoterol” value ([2]; rat)?
A: significantly higher

Q: What about the B ([2]; rat, two-compartment open model) of the same molecule?
A: 0.3900 µg/mL

Q: Which “plasma concentration, individual rat” value ([2]; 240 min, listed as (R,S)-naphthylfenoterol, Fumarate) does the source give for C[C@@H](Cc1cccc2ccccc12)NC[C@H](O)c1cc(O)cc(O)c1.O=C(O)/C=C/C(=O)O [(R,S)-5, (R,S)-(−)-5-{1-hydroxy-2-[1-methyl-2-(1-naphthyl)ethylamino]ethyl}-1,3-benzenediol Fumarate] here?
A: 0.11 ug/ml (3×) and 0.13 ug/ml (2×)

Q: What about the “plasma concentration, individual rat” value ([2]; 300 min, listed as (R,S)-naphthylfenoterol, Fumarate) of the same molecule?
A: 0.10 ug/ml (2×) and 0.11 ug/ml (2×) and 0.12 ug/ml

Q: And the “systemic exposure (AUC) compared to (R,R)-fenoterol” value ([2]; rat)?
A: significantly higher

Q: What about the “plasma concentration, Average” value ([2]; rat, 15 min) of the same molecule?
A: 680 ng/mL

Q: What about the “plasma concentration, Average” value ([2]; rat, 30 min) of the same molecule?
A: 430 ng/mL

Q: What about the “plasma concentration, Average” value ([2]; rat, 60 min) of the same molecule?
A: 340 ng/mL

Q: And the “plasma concentration, Average” value ([2]; rat, 120 min)?
A: 240 ng/mL

Q: And the “plasma concentration, Average” value ([2]; rat, 240 min)?
A: 120 ng/mL

Q: What about the “plasma concentration, Average” value ([2]; rat, 300 min) of the same molecule?
A: 110 ng/mL

Q: And the “plasma concentration, Average” value ([2]; rat, 360 min)?
A: 90 ng/mL

Q: Which Ki (β1-AR) does the source give for Oc1cc(O)cc([C@H](O)CNCCc2ccccc2)c1 [(S)-7, (S)-(+)-5-(1-hydroxy-2-phenethylaminoethyl)-1,3-benzenediol Fumarate] here?
A: 52.2 ± 3.01 µM

Q: For CC(C)NCC(O)c1ccc(O)c2[nH]c(=O)ccc12 (stereo not shown) [Compound 50], which “Ki β1/Ki β2 ratio” value (β2-AR) is on record?
A: 1.7

Q: Which “Ki β1/Ki β2 ratio” value (β2-AR) does the source give for NCC(O)c1ccc(O)c2[nH]c(=O)ccc12 (stereo not shown) [Compound 51] here?
A: 1.3

Q: What does the source list for Cc1ccc(OCC(O)C(C)NC(C)C)c2c1CCC2 (stereo not shown) [ICI 118-551]?
A: shift of the (R,R)-fenoterol dose response curve (1321N1 cells [3]; 1 nM and 3 nM): parallel rightward shift; pA2 against inhibitory effect of (R,R)-fenoterol (1321N1 cells [3]; [3H]-thymidine incorporation, 1321N1 cells): 8.9; slope of competitive inhibition (1321N1 cells [3]; [3H]-thymidine incorporation, versus (R,R)-fenoterol): −1.3±0.3

Q: For [3H]COc1ccc(C[C@@H](C)NC[C@H](O)c2cc(O)cc(O)c2)cc1 [[^3H]-(R,R)-methoxyfenoterol, [^3H]—(R,R)-methoxyfenoterol chloride], which “decrease of plasma level” value ([4]; from 5 minutes to 60 minutes) is on record?
A: 62%

Q: What about the “passage through the blood brain barrier” value ([4]; rat, IV) of the same molecule?
A: pass through the blood brain barrier

Q: And the “Brain level, Mean” value ([4]; rat, IV 5 mg/kg, 5 min)?
A: 0.92 μg-equiv/g

Q: And the “Percent of Dose in Brain, Mean” value ([4]; rat, IV 5 mg/kg, 5 min)?
A: 0.14%

Q: And the “Plasma level, Mean” value ([4]; rat, IV 5 mg/kg, 5 min)?
A: 3.25 μg-equiv/ml

Q: What about the “Brain level, Mean” value [4, 5] of the same molecule?
A: 0.92±0.10 μg-equiv/g

Q: What about the “Plasma level, Mean” value [4, 5] of the same molecule?
A: 3.25±0.15 μg-equiv/ml

Q: What about the “Brain level, Mean” value ([4]; rat, IV 5 mg/kg, 15 min) of the same molecule?
A: 0.80 μg-equiv/g

Q: And the “Percent of Dose in Brain, Mean” value ([4]; rat, IV 5 mg/kg, 15 min)?
A: 0.12%

Q: And the “Plasma level, Mean” value ([4]; rat, IV 5 mg/kg, 15 min)?
A: 1.79 μg-equiv/ml

Q: What about the “Brain level, Mean” value ([4]; rat, IV 5 mg/kg, 30 min) of the same molecule?
A: 0.72 μg-equiv/g

Q: And the “Percent of Dose in Brain, Mean” value ([4]; rat, IV 5 mg/kg, 30 min)?
A: 0.11%

Q: And the “Plasma level, Mean” value ([4]; rat, IV 5 mg/kg, 30 min)?
A: 1.53 μg-equiv/ml

Q: And the “Brain level, Mean” value ([4]; rat, IV 5 mg/kg, 60 min)?
A: 0.70 μg-equiv/g

Q: What about the “Percent of Dose in Brain, Mean” value ([4]; rat, IV 5 mg/kg, 60 min) of the same molecule?
A: 0.11%

Q: What about the “Plasma level, Mean” value ([4]; rat, IV 5 mg/kg, 60 min) of the same molecule?
A: 1.24 μg-equiv/ml

Q: And the “Brain level, Mean” value [4, 6]?
A: 0.70±0.37 μg-equiv/g

Q: And the “Plasma level, Mean” value [4, 6]?
A: 1.24±0.43 μg-equiv/ml

Q: What about the “percent dose found in the brain, any given animal” value ([4]; rat, IV 5 mg/kg, over 60 minutes) of the same molecule?
A: no more than 0.17%

Q: Which results are given for (R,R)-TA-2005 [Compound 49]?
A: Ki (β2-AR): 0.012 µM; Ki β1/Ki β2 ratio (β2-AR): 53
